Data from PubChem BioAssay AID1259411 (Chemical Carcinogenesis Research Information System (CCRIS), 2018).
The source made the active and inactive calls. No rule for the calls is given here.

Test system: rodent carcinogenicity bioassays, tumor incidence
Experiment: CCRIS carcinogenicity studies
Summary of the method: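 NCI-built, expert-reviewed records of carcinogenicity and related test outcomes (mutagenicity, tumor promotion/inhibition) compiled from published and report sources, historical span 1985-2011, not updated.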

COc1ccccc1O was tested, and the carcinogen call (Species: RAT, Strain/Sex: SPRAGUE-DAWLEY/FEMALE, Route: GAVAGE, Dose: 0, 20, 50, 200 MG/KG/D IN 0.5% CARBOXYMETHYLCELLULOSE SUSPENSION FOR 103 WK (STUDY DURATION: 103 WK), Dose: 0, 20, 50, 200 MG/KG/D IN 0.5% CARBOXYMETHYLCELLULOSE SUSPENSION FOR 103 WK (STUDY DURATION: 103 WK)) was “inactive; negative” and the carcinogen call (Species: RAT, Strain/Sex: SPRAGUE-DAWLEY/MALE, Route: GAVAGE, Dose: 0, 20, 50, 200 MG/KG/D IN 0.5% CARBOXYMETHYLCELLULOSE SUSPENSION FOR 103 WK (STUDY DURATION: 103 WK), Dose: 0, 20, 50, 200 MG/KG/D IN 0.5% CARBOXYMETHYLCELLULOSE SUSPENSION FOR 103 WK (STUDY DURATION: 103 WK)) was “inactive; negative”.

In the case of c1ccc2cc3c(cc2c1)-c1cccc2cccc-3c12, the carcinogen call (Species: MOUSE, Route: DERMAL, Tumor Site: Type of Lesion: INTEGUMENTARY SYSTEM (SKIN)) was “active; positive” and the carcinogen call (Species: RAT, Strain/Sex: OSBORNE-MENDEL/FEMALE, Route: LUNG IMPLANT, Dose: 0, 0.16, 0.83, 4.15 MG IN BEESWAX/TRIOCTANOIN (STUDY DURATION: LIFETIME), Dose: 0, 0.16, 0.83, 4.15 MG IN BEESWAX/TRIOCTANOIN (STUDY DURATION: LIFETIME), Tumor Site: Type of Lesion: LUNG: EPIDERMOID CARCINOMA) was “active; positive”.

With O=c1cc[nH]c(=O)[nH]1 the carcinogen call (Species: MOUSE, Strain/Sex: B6C3F1/FEMALE, Route: ORAL, Dose: 0, 3% IN DIET FOR WK 1-6 OF STUDY THEN 0, 2.5% IN DIET FOR WK 7-96 (STUDY DURATION: 96 WK), Dose: 0, 3% IN DIET FOR WK 1-6 OF STUDY THEN 0, 2.5% IN DIET FOR WK 7-96 (STUDY DURATION: 96 WK), Tumor Site: Type of Lesion: URINARY BLADDER: TRANSITIONAL CELL CARCINOMA) was “active; positive”, the carcinogen call (Species: MOUSE, Strain/Sex: B6C3F1/MALE, Route: ORAL, Dose: 0, 3% IN DIET FOR WK 1-6 OF STUDY THEN 0, 2.5% IN DIET FOR WK 7-96 (STUDY DURATION: 96 WK), Dose: 0, 3% IN DIET FOR WK 1-6 OF STUDY THEN 0, 2.5% IN DIET FOR WK 7-96 (STUDY DURATION: 96 WK)) was “inactive; negative” and the carcinogen call (Species: RAT, Strain/Sex: F344/FEMALE, Route: ORAL, Dose: 0, 3% IN DIET FOR 104 WK (STUDY DURATION: 104 WK), Tumor Site: Type of Lesion: URINARY BLADDER: TRANSITIONAL CELL CARCINOMA) was “active; positive”. The carcinogen call (Species: RAT, Strain/Sex: F344/MALE, Route: ORAL, Dose: 0, 3% IN DIET FOR 104 WK (STUDY DURATION: 104 WK), Tumor Site: Type of Lesion: URINARY BLADDER: TRANSITIONAL CELL PAPILLOMA, TRANSITIONAL CELL CARCINOMA, RENAL PELVIS: PAPILLOMA, CARCINOMA) was “active; positive”.

In the case of CN1CSC(=S)N(C)C1, the carcinogen call (Species: Mouse, Strain/Sex: B6C3F1/Female (50/Group), Route: Oral, Dose: 0, 6, 22, 93 mg/kg in diet for 78 wk, study duration 78 wk, Dose: 0, 6, 22, 93 mg/kg in diet for 78 wk, study duration 78 wk) was “inactive; negative”, the carcinogen call (Species: Mouse, Strain/Sex: B6C3F1/Male (50/Group), Route: Oral, Dose: 0, 4, 16, 68 mg/kg in diet for 78 wk, study duration 78 wk, Dose: 0, 4, 16, 68 mg/kg in diet for 78 wk, study duration 78 wk) was “inactive; negative” and the carcinogen call (Species: Rat, Strain/Sex: Wistar/Female (50/Group), Route: Oral, Dose: 0, 0.35, 1.37, 5.66 mg/kg in diet for 2 yr, study duration 2 yr) was “inactive; negative”. The carcinogen call (Species: Rat, Strain/Sex: Wistar/Male (50/Group), Route: Oral, Dose: 0, 0.27, 1.08, 4.43 mg/kg in diet for 2 yr, study duration 2 yr) was “inactive; negative”.

Cc1ccc(/C(=C\CN2CCCC2)c2ccccn2)cc1 was tested, and the carcinogen call (Species: MOUSE, Strain/Sex: B6C3F1/FEMALE, Route: ORAL, Dose: 0, 500, 2000, 4000 PPM IN DIET FOR 2 YR (STUDY DURATION: 2 YR), Dose: 0, 500, 2000, 4000 PPM IN DIET FOR 2 YR (STUDY DURATION: 2 YR)) was “inactive; negative”, the carcinogen call (Species: MOUSE, Strain/Sex: B6C3F1/MALE, Route: ORAL, Dose: 0, 500, 2000, 4000 PPM IN DIET FOR 2 YR (STUDY DURATION: 2 YR), Dose: 0, 500, 2000, 4000 PPM IN DIET FOR 2 YR (STUDY DURATION: 2 YR)) was “inactive; negative” and the carcinogen call (Species: RAT, Strain/Sex: F344/FEMALE, Route: ORAL, Dose: 0, 250, 1000, 2000 PPM IN DIET FOR 103 WK (STUDY DURATION: 104 WK), Dose: 0, 250, 1000, 2000 PPM IN DIET FOR 103 WK (STUDY DURATION: 104 WK)) was “inactive; negative”. The carcinogen call (Species: RAT, Strain/Sex: F344/MALE, Route: ORAL, Dose: 0, 250, 1000, 2000 PPM IN DIET FOR 103 WK (STUDY DURATION: 104 WK), Dose: 0, 250, 1000, 2000 PPM IN DIET FOR 103 WK (STUDY DURATION: 104 WK)) was “inactive; negative”.

In the case of [O-][Cl+2]([O-])O, the carcinogen call (Species: MOUSE, Strain/Sex: B6C3F1/FEMALE (50, 50, 50, 50), Route: DRINKING WATER, Dose: 0, 500, 1000, 2000 MG/L FOR 105 WKS (STUDY DURATION: 105 WKS), Dose: 0, 500, 1000, 2000 MG/L FOR 105 WKS (STUDY DURATION: 105 WKS), Tumor Site: Type of Lesion: PANCREAS: ADENOMA OR CARCINOMA) was “equivocal”, the carcinogen call (Species: MOUSE, Strain/Sex: B6C3F1/MALE (50, 50, 50, 50), Route: DRINKING WATER, Dose: 0, 500, 1000, 2000 MG/L FOR 105 WKS (STUDY DURATION: 105 WKS), Dose: 0, 500, 1000, 2000 MG/L FOR 105 WKS (STUDY DURATION: 105 WKS)) was “inactive; negative” and the carcinogen call (Species: RAT, Strain/Sex: F344/N/FEMALE (50, 50, 50, 50), Route: DRINKING WATER, Dose: 0, 125, 1000, 2000 MG/L FOR 105 WK (STUDY DURATION: 105 WKS), Dose: 0, 125, 1000, 2000 MG/L FOR 105 WK (STUDY DURATION: 105 WKS)) was “inactive; negative; ntp reports as some evidence for thyroid but p values are not statisti”. For the same compound, the carcinogen call (Species: RAT, Strain/Sex: F344/N/MALE (50, 50, 50, 50), Route: DRINKING WATER, Dose: 0, 125, 1000, 2000 MG/L FOR 105 WK (STUDY DURATION: 105 WKS), Dose: 0, 125, 1000, 2000 MG/L FOR 105 WK (STUDY DURATION: 105 WKS), Tumor Site: Type of Lesion: THYROID: FOLLICULAR CELL ADENOMA OR CARCINOMA) was “active; positive (p = 0.052); ntp reports as some evidence”.

In the case of Nc1ccc(-n2c3ccccc3c3ccncc32)cc1, the carcinogen call (Species: RAT, Strain/Sex: F344/MALE (30-33/GROUP), FEMALE (28-32/GROUP), Route: ORAL, Dose: 0, 20, 40 PPM IN DIET FOR 85 WK (STUDY DURATION: 85 WK), Dose: 0, 20, 40 PPM IN DIET FOR 85 WK (STUDY DURATION: 85 WK), Tumor Site: Type of Lesion: LIVER: ADENOMA, HEPATOCELLULAR CARCINOMA, COLON: ADENOCARCINOMA, THYROID: FOLLICULAR CELL ADENOMA AND CARCINOMA, MONONUC, Tumor Site: Type of Lesion: LIVER: ADENOMA, HEPATOCELLULAR CARCINOMA, COLON: ADENOCARCINOMA, THYROID: FOLLICULAR CELL ADENOMA AND CARCINOMA, MONONUC) was “active; positive”.

In the case of O=Cc1ccc(CO)o1, the carcinogen call (Species: MOUSE, Strain/Sex: B6C3F1/MALE, Route: INTRAPERITONEAL, Dose: 0, 0.25, 1 UMOL/G BW IN 5 µL DMSO/G BW ONCE, Dose: 0, 0.25, 1 UMOL/G BW IN 5 µL DMSO/G BW ONCE) was “inactive; negative”, the carcinogen call (Species: MOUSE, Strain/Sex: CD-1/FEMALE, Route: DERMAL, Dose: 0, 50 UMOL/0.1 ML DMSO 2/WK FOR 5 WK FOLLOWED 1 WK LATER BY 0.1 ML ACETONE 2/WK FOR 47 WK (STUDY DURATION: 52 WK)) was “inactive; negative” and the carcinogen call (Species: Mouse, Strain/Sex: B6C3F1/ Female (50/Group), Route: Oral, Dose: 0, 188, 375, 750 mg/kg by gavage in deionized water for 2 yr, Dose: 0, 188, 375, 750 mg/kg by gavage in deionized water for 2 yr, Tumor Site: Type of Lesion: Liver: hepatocellular adenoma (14/50, 26/49, 26/50, 6/50)) was “inactive; negative (ntp reports as some evidence based on increased incidences of hepatoce”. For the same compound, the carcinogen call (Species: Mouse, Strain/Sex: B6C3F1/ Male (50/Group), Route: Oral, Dose: 0, 188, 375, 750 mg/kg by gavage in deionized water for 2 yr, Dose: 0, 188, 375, 750 mg/kg by gavage in deionized water for 2 yr) was “inactive; negative”, the carcinogen call (Species: Rat, Strain/Sex: F344/N / Female (50/Group), Route: Oral, Dose: 0, 188, 375, 750 mg/kg by gavage in deionized water for 2 yr, Dose: 0, 188, 375, 750 mg/kg by gavage in deionized water for 2 yr) was “inactive; negative” and the carcinogen call (Species: Rat, Strain/Sex: F344/N / Male (50/Group), Route: Oral, Dose: 0, 188, 375, 750 mg/kg by gavage in deionized water for 2 yr, Dose: 0, 188, 375, 750 mg/kg by gavage in deionized water for 2 yr) was “inactive; negative”.

Clc1ccc(-c2cc(Cl)c(Cl)cc2Cl)cc1Cl was tested, and the carcinogen call (Species: Rat, Strain/Sex: Harlan Sprague-Dawley/Female (80/Group), Route: Oral, Dose: 0, 100, 220, 460, 1000, 4600 ug/kg in corn oil, by gavage, 5 d/wk for 2 yr, Dose: 0, 100, 220, 460, 1000, 4600 ug/kg in corn oil, by gavage, 5 d/wk for 2 yr, Tumor Site: Type of Lesion: Liver: cholangiocarcinoma (0/52, 0/51, 0/52, 0/52, 3/52, 36/49, 29/49), hepatocellular adenoma (0/52, 1/51, 1/52, 4/52) was “active; positive”.
